Read-outs that look alike come from different tables or passages of the source.
What was measured:
Format in all cases: in vivo
[1] = test system: wheat (Triticum aestivum); assay: Test A pre-/postemergence plant response; settings: Triticum aestivum, 240 h; for plant injury at 125 g/ha: 125 g ai/ha; for plant injury at 500 g/ha: 500 g ai/ha
How it was run: (§1)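 Pre: directed soil spray on seeded loam/sand blend. Post: same formulation (non-phytotoxic solvent + surfactant) on 2–10 cm plants, 1–2 leaf stage. Greenhouse ~10 d; visual injury score 0–100 vs untreated.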

[2] = test system: large crabgrass (Digitaria sanguinalis); assay: Test A pre-/postemergence plant response; settings: Digitaria sanguinalis, 240 h; for pest or weed control at 125 g/ha: 125 g ai/ha; for pest or weed control at 500 g/ha: 500 g ai/ha
How it was run: as §1

[3] = test system: velvetleaf (Abutilon theophrasti); assay: Test A pre-/postemergence plant response; settings: Abutilon theophrasti, 240 h; for pest or weed control at 125 g/ha: 125 g ai/ha; for pest or weed control at 500 g/ha: 500 g ai/ha
How it was run: as §1

[4] = test system: morningglory (Ipomoea spp.); assay: Test A pre-/postemergence plant response; settings: Ipomoea, 240 h; for pest or weed control at 125 g/ha: 125 g ai/ha; for pest or weed control at 500 g/ha: 500 g ai/ha
How it was run: as §1

[5] = test system: wheat (Triticum aestivum); assay: Test B pre-/postemergence plant response
How it was run: (§2)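 Greenhouse herbicide screen. Pre- and postemergence (1- to 4-leaf) spray of compound in solvent/surfactant mixture; loam–sand soil for pre, peat/vermiculite medium for post. Visual control rating 0–100 at 13 to 15 days after treatment.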

[6] = test system: giant foxtail (Setaria faberii); assay: Test B pre-/postemergence plant response; settings: for pest or weed control at 31 g/ha: 31 g ai/ha, scale 0 to 100 (0 no effect, 100 complete control); for pest or weed control at 62 g/ha: 62 g ai/ha
How it was run: as §2

[7] = test system: pigweed (Amaranthus retroflexus); assay: Test B pre-/postemergence plant response
How it was run: as §2

[8] = Preemergence, 125 g ai/ha, 0 to 100 scale

For Cc1c(F)cccc1-n1c(-c2ccccc2)ncc(C(=O)C2=C(O)CCCC2=O)c1=O [Compound 47, 3-(3-fluoro-2-methylphenyl)-5-[(2-hydroxy-6-oxo-1-cyclohexen-1-yl)carbonyl]-2-phenyl-4(3H)-pyrimidinone], the plant injury at 125 g/ha ([1]; post-emergence, Postemergence, visual injury, 0 to 100 scale (0 no effect, 100 complete control), approx. ten days, read-out: Wheat plant response rating) was 0%, the plant injury at 500 g/ha ([1]; post-emergence, Postemergence, 0 to 100 scale, 0 = no effect, 100 = complete control, approx. ten days, read-out: Plant response rating, Wheat) was 0% and the plant injury at 125 g/ha ([1]; pre-emergence, Preemergence, 0 to 100 scale, 0 = no effect, 100 = complete control, read-out: Plant response rating, Wheat) was 0%. The plant injury at 500 g/ha ([1]; pre-emergence, Preemergence, visual injury, 0 to 100 scale (0 no effect, 100 complete control), approx. ten days, read-out: Plant response rating, Wheat) was 0%, the pest or weed control at 125 g/ha ([2]; post-emergence, Postemergence, visual injury, 0 to 100 scale (0 no effect, 100 complete control), approx. ten days, read-out: Crabgrass, Large plant response rating) was 90% and the pest or weed control at 500 g/ha ([2]; post-emergence, Postemergence, 0 to 100 scale, 0 = no effect, 100 = complete control, approx. ten days, read-out: Plant response rating, Crabgrass, Large) was 100%. For the same compound, the pest or weed control at 125 g/ha ([2]; pre-emergence, Preemergence, 0 to 100 scale, 0 = no effect, 100 = complete control, read-out: Plant response rating, Crabgrass, Large) was 70%, the pest or weed control at 500 g/ha ([2]; pre-emergence, Preemergence, visual injury, 0 to 100 scale (0 no effect, 100 complete control), approx. ten days, read-out: Plant response rating, Crabgrass, Large) was 100% and the pest or weed control at 125 g/ha ([3]; post-emergence, Postemergence, visual injury, 0 to 100 scale (0 no effect, 100 complete control), approx. ten days, read-out: Velvetleaf plant response rating) was 100%. It also gave a pest or weed control at 500 g/ha ([3]; post-emergence, Postemergence, 0 to 100 scale, 0 = no effect, 100 = complete control, approx. ten days, read-out: Plant response rating, Velvetleaf) of 100%, a pest or weed control at 125 g/ha ([3]; pre-emergence, Preemergence, 0 to 100 scale, 0 = no effect, 100 = complete control, read-out: Plant response rating, Velvetleaf) of 70% and a pest or weed control at 500 g/ha ([3]; pre-emergence, Preemergence, visual injury, 0 to 100 scale (0 no effect, 100 complete control), approx. ten days, read-out: Plant response rating, Velvetleaf) of 100%. The pest or weed control at 125 g/ha ([4]; post-emergence, Postemergence, visual injury, 0 to 100 scale (0 no effect, 100 complete control), approx. ten days, read-out: Morningglory plant response rating) was 80%, the pest or weed control at 500 g/ha ([4]; post-emergence, Postemergence, 0 to 100 scale, 0 = no effect, 100 = complete control, approx. ten days, read-out: Plant response rating, Morningglory) was 100% and the pest or weed control at 125 g/ha ([4]; pre-emergence, Preemergence, 0 to 100 scale, 0 = no effect, 100 = complete control, read-out: Plant response rating, Morningglory) was 60%. The pest or weed control at 500 g/ha ([4]; pre-emergence, Preemergence, visual injury, 0 to 100 scale (0 no effect, 100 complete control), approx. ten days, read-out: Plant response rating, Morningglory) was 90%, the “Wheat plant response rating” value [5, 8] was 0 and the plant injury at 62 g/ha ([5]; Triticum aestivum, post-emergence, Postemergence, 62 g ai/ha, scale 0 (no effect) to 100 (complete control), 13 to 15 days, read-out: Plant response rating, Wheat) was 0%. For the same compound, the plant injury at 125 g/ha ([5]; Triticum aestivum, post-emergence, Postemergence, 125 g ai/ha, visual rating after 13 to 15 days, scale 0 (no effect) to 100 (complete control)) was 5%, the plant injury at 250 g/ha ([5]; Triticum aestivum, pre-emergence, 250 g ai/ha, Preemergence, 0 to 100 scale, read-out: Plant response rating, Wheat) was 0% and the plant injury at 31 g/ha ([5]; Triticum aestivum, pre-emergence, Preemergence, 31 g ai/ha, scale 0 to 100 (0 no effect, 100 complete control), read-out: Plant response rating, Wheat) was 0%. For the same compound, the “Foxtail, Giant plant response rating” value ([6]; Postemergence, 250 g ai/ha, scale 0 to 100) was 98, the “Foxtail, Giant plant response rating” value [6, 8] was 85 and the pest or weed control at 31 g/ha ([6]; Setaria faberi, post-emergence, Postemergence, read-out: Plant response rating, Foxtail, Giant) was 90%. For the same compound, the pest or weed control at 62 g/ha ([6]; Setaria faberi, post-emergence, Postemergence, scale 0 (no effect) to 100 (complete control), 13 to 15 days, read-out: Plant response rating, Foxtail, Giant) was 98%, the pest or weed control at 125 g/ha ([6]; Setaria faberi, post-emergence, Postemergence, 125 g ai/ha, visual rating after 13 to 15 days, scale 0 (no effect) to 100 (complete control)) was 98% and the pest or weed control at 250 g/ha ([6]; Setaria faberi, pre-emergence, 250 g ai/ha, Preemergence, 0 to 100 scale, read-out: Plant response rating, Foxtail, Giant) was 100%. For the same compound, the pest or weed control at 31 g/ha ([6]; Setaria faberi, pre-emergence, Preemergence, read-out: Plant response rating, Foxtail, Giant) was 45%, the pest or weed control at 62 g/ha ([6]; Setaria faberi, pre-emergence, Preemergence, scale 0 to 100, 0 no effect, 100 complete control, read-out: Plant response rating, Foxtail, Giant) was 70% and the pest or weed control at 62 g/ha ([7]; Amaranthus retroflexus, post-emergence, Postemergence, 62 g ai/ha, scale 0 (no effect) to 100 (complete control), 13 to 15 days, read-out: Plant response rating, Pigweed) was 98%. The pest or weed control at 125 g/ha ([7]; Amaranthus retroflexus, post-emergence, Postemergence, 125 g ai/ha, visual rating after 13 to 15 days, scale 0 (no effect) to 100 (complete control)) was 100%, the pest or weed control at 250 g/ha ([7]; Amaranthus retroflexus, pre-emergence, 250 g ai/ha, Preemergence, 0 to 100 scale, read-out: Plant response rating, Pigweed) was 100% and the pest or weed control at 31 g/ha ([7]; Amaranthus retroflexus, pre-emergence, Preemergence, 31 g ai/ha, scale 0 to 100 (0 no effect, 100 complete control), read-out: Plant response rating, Pigweed) was 98%. The “Pigweed plant response rating” value [7, 8] was 100.

Source: patent US8952024B2, “Herbicidal pyrimidone derivatives” (E I du Pont de Nemours and Company, priority 2009, dated 2015)
